Source: patent US11339130B1 (Blade Therapeutics, Inc., priority 2016, dated 2022)
Read-outs that look alike come from different tables or passages of the source.

What was measured:
[1] = test system: Bleomycin-induced pulmonary fibrosis; assay: Bleomycin-induced pulmonary fibrosis in mice (14 d); format: in vivo; set-up: concentration or dose not given beside the values
Description: The method for inducing pulmonary fibrosis in mice is described in Current Protocols in Pharmacology: 5.46.1, entitled “Mouse Models of Bleomycin-induced Pulmonary Fibrosis”. In order to induce pulmonary fibrosis, 6-8 week old C57B1/6 mice or Wistar rats are instilled once oropharyngeally with ˜1.5 U/kg of bleomycin sulfate (Calbiochem, Billerica, Mass.). Briefly, for oropharyngeal administration of bleomycin, mice or rats are anesthetized with isofluorane and then suspended on its back at a˜60 degree angle on an inclined surface with a rubber band running under the upper incisors. The airway is opened while securing the tongue with one arm of padded forceps and bleomycin is administered into the back of the oral cavity with a syringe. The animal's tongue and mouth were held open until the liquid disappeared from the oral cavity. The animal was then returned to its cage and monitored until fully recovered from the anesthesia. The study is terminated on day 14-28 for oropharyngeally administered bleomycin in mice and rats. All animals are euthanized at the termination of the studies by cervical dislocation for gross necropsy, and blood collected by cardiac puncture. The lungs from each animal are dissected from the animal and weighed. The BAL cells and fluid are collected by lavaging the lung twice with 0.5 ml Hanks Balanced Salt Solution (HBSS; VWR, Radnor, Pa.). After collection of BAL cells and fluid, lungs are dissected and removed from each animal. Whole lungs are inflated with 10% NBF and then fixed in 10% NBF for histology. Severity of fibrosis in the lungs is evaluated using a modified Ashcroft score (Hubner, Biotechniques, 2008) and subjective fibrosis scores. Lung sections were graded by averaging 5 microscopic fields at 20× on an Ashcroft scale as follows: Grade 0=normal lung; Grade 1=minimally detectable thickening of alveolar walls; Grade 2=Mild thickening of alveolar walls. Grade 3=moderate contiguous thickening of walls with fibrous nodules; Grade 4=Thickened septae and confluent fibrotic masses that total less than 10% of microscopic field. Grade 5=increased fibrosis with definite damage to lung structure and formation of fibrous bands or small fibrous masses between 10 and 50% of microscopic field; Grade 6=Large contiguous fibrotic masses consolidating more than 50% of microscopic field. Grade 7=severe distortion of structure and large fibrous areas; Grade 8=total fibrous obliteration of lung within microscopic field. Each slide was examined at 20× magnification and the score for 5 separate representative fields was averaged for each animal. Subjective scores (H&E and Trichrome-stained slides) were evaluated at 2× magnification for an overall assessment of pathologic change. A score of 0=no detectible findings to 5=complete involvement of consolidation. Scores in each group were averaged and standard error was calculated using Excel 2010. Dense, organized inflammatory exudates were scored as fibrosis. Other tissues were evaluated microscopically and scored routinely.

[2] = test system: Calpain activity in SH-SY5Y cells; assay: SH-SY5Y + AMC fluorescence assay (Suc-LLVY-AMC substrate); format: cell-based; settings: read-out: SH-SY5Y + AMC IC50
Human Calpain 1/NS1 = target: T1, Human Calpain 1/NS1 (Homo sapiens, UniProt P07384); assay: Calpain inhibition continuous fluorescence (FRET) assay, Human Calpain 1/NS1; format: biochemical; settings: read-out: Human Calpain 1/NS1 IC50
T1 sequence (P07384 1-714): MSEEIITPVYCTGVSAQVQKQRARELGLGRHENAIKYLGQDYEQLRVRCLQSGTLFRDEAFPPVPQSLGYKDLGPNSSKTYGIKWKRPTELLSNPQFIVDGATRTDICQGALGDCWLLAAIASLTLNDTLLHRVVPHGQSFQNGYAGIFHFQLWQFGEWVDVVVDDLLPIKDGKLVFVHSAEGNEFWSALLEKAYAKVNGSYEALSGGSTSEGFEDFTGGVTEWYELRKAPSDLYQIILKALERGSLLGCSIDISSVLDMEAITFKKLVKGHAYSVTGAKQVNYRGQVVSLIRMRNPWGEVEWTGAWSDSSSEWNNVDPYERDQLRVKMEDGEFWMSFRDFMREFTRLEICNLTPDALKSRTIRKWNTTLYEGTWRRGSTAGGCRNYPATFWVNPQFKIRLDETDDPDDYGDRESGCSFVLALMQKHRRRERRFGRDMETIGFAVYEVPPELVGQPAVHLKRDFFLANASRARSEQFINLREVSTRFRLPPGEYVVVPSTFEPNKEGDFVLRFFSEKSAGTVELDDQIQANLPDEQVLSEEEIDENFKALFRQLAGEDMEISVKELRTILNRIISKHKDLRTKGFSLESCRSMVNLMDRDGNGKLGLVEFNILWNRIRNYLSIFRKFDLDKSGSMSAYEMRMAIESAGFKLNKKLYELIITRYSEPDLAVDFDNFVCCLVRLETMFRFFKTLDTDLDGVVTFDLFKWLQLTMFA
T1 sequence (P04632 1-268 partner): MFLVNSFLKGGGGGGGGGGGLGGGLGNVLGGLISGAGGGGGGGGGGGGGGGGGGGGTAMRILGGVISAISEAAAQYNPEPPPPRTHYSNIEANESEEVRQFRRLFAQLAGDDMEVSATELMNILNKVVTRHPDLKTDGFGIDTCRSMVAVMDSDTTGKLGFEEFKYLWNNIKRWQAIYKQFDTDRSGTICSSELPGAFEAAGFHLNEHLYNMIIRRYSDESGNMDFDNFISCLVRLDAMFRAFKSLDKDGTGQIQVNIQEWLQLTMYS
In short: (§1)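 Buffer 50 mM Tris pH 7.5/100 mM NaCl/1 mM DTT; enzyme + cpd preinc 25C; start w/ FRET substrate + CaCl2; kinetic 490/520 nm, 10 min; slopes 1-5 min; 4-PL IC50.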

Human Calpain 9/NS1 = target: T2, Human Calpain 9/NS1 (Homo sapiens, UniProt O14815); assay: Calpain inhibition continuous fluorescence (FRET) assay, Human Calpain 9/NS1; format: biochemical; settings: read-out: Human Calpain 9/NS1 IC50
T2 sequence (O14815 1-690): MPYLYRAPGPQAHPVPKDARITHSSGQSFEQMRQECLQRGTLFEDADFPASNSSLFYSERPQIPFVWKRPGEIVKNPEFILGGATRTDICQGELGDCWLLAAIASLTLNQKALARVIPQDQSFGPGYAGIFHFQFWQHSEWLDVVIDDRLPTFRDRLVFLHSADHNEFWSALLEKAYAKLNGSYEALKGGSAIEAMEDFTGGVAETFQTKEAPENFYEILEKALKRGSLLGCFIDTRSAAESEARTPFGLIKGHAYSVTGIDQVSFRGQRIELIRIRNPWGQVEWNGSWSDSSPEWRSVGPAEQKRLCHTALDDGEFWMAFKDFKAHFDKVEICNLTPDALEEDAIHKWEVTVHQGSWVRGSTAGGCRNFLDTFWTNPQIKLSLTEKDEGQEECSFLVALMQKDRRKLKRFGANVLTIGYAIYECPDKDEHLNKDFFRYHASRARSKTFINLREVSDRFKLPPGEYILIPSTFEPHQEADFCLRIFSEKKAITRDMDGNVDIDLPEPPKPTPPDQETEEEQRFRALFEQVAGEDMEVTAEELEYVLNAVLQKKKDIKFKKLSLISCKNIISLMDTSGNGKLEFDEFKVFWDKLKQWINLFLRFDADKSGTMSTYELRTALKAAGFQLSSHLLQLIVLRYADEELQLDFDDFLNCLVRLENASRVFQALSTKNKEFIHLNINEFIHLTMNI
T2 sequence (P04632 1-268 partner): T1 sequence (P04632 1-268 partner)
In short: as §1

Human Calpain 2/NS1 = target: T3, Human Calpain 2/NS1 (Homo sapiens, UniProt P17655); assay: Calpain inhibition continuous fluorescence (FRET) assay, Human Calpain 2/NS1; format: biochemical; settings: read-out: Human Calpain 2/NS1 IC50
T3 sequence (P17655 1-700): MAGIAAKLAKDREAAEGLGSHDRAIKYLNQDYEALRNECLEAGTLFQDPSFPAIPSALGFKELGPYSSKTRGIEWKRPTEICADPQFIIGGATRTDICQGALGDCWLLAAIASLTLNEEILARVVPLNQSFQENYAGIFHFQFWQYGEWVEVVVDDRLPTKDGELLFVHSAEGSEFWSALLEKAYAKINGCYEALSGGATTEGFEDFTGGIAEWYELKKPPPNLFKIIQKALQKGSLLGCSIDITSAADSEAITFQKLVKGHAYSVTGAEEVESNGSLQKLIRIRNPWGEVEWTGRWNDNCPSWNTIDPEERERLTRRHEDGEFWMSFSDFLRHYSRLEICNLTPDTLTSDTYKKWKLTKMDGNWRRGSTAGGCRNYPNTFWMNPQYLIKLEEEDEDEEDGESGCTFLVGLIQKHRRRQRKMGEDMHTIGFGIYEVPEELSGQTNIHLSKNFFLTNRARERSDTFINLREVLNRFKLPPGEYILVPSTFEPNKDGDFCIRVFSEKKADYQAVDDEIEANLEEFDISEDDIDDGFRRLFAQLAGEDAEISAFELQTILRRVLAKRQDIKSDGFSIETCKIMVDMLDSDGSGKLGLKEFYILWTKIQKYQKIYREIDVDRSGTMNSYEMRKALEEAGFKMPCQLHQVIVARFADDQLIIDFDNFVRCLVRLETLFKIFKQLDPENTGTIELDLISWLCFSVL
T3 sequence (P04632 1-268 partner): T1 sequence (P04632 1-268 partner)
In short: as §1

[3] = test system: Calpain activity in SH-SY5Y cells (SBDP-150); assay: SH-SY5Y Spectrin western blot assay (SBDP-150 breakdown product, A23187-induced); format: cell-based; settings: SH-SY5Y cells, read-out: SH-SY5Y Spectrin IC50
[4] = A23187-induced SBDP-150, western blot

| Compound | % reduction compared to vehicle [1] | IC50 ([2]; Column E) | IC50 (Human Calpain 1/NS1; Column A) | IC50 (Human Calpain 9/NS1; Column C) | IC50 (Human Calpain 2/NS1; Column B) | IC50 ([3]; Column D, A23187-induced SBDP-150) | IC50 [2] | IC50 (Human Calpain 1/NS1) | IC50 (Human Calpain 9/NS1) | IC50 (Human Calpain 2/NS1) | IC50 [3, 4] |
| --- | --- | --- | --- | --- | --- | --- | --- | --- | --- | --- | --- |
| Cc1ccc(=O)n(-c2ccccc2)c1 [pirfenidone, reference compound] | −14% | – | – | – | – | – | – | – | – | – | – |
| Methyl (S)-(4-(5-((4-amino-3,4-dioxo-1-phenylbutan-2-yl)carbamoyl)-3-methyl-1H-pyrazol-1-yl)benzyl)carbamate [Compound 161] | – | > 25000 nM | < 3000 nM | < 3000 nM | < 3000 nM | < 10000 nM | – | – | – | – | – |
| N-(4-amino-3,4-dioxo-1-phenylbutan-2-yl)-1-(2-cyanopyrimidin-4-yl)-3-methyl-1H-pyrazole-5-carboxamide [Compound 448] | – | – | – | – | – | – | < 10000 nM | < 3000 nM | < 3000 nM | < 3000 nM | < 10000 nM |
| N-(4-amino-3,4-dioxo-1-phenylbutan-2-yl)-1-methyl-3-(5-methylthiophen-2-yl)-1H-pyrazole-4-carboxamide [Compound 505] | – | – | – | – | – | – | > 25000 nM | < 3000 nM | < 3000 nM | < 3000 nM | < 10000 nM |
| N-(4-amino-3,4-dioxo-1-phenylbutan-2-yl)-3-(5-fluoropyridin-3-yl)-1-methyl-1H-pyrazole-4-carboxamide [Compound 506] | – | – | – | – | – | – | 10000 to 25000 nM | < 3000 nM | < 3000 nM | < 3000 nM | 10000 to 25000 nM |
| N-(4-amino-3-hydroxy-4-oxo-1-phenylbutan-2-yl)-4-(4-((benzyloxy)methyl)phenyl)-1,2,5-thiadiazole-3-carboxamide [Compound 369] | – | – | – | – | – | – | > 25000 nM | < 3000 nM | < 3000 nM | < 3000 nM | < 10000 nM |
